The values below come from patent US20120193574A1, “Method Of Controlling Crystallization” (University of Durham, priority 2009, published 2012).

Entries after “also recorded” stand apart in the source; their conditions may differ.

Data set [1] in a line: Supersaturated solutions stabilised due to confinement in microemulsions; visual inspection or optical microscopy on standing. In kind it is physicochemical. How it is done:
Glycine microemulsions prepared at ambient temperature containing 4.2 g heptane, 2.8 g of a 1:1 mass ratio of Span 80 and Brij 30, and 0.25 g of glycine solution containing 3-3.5% by mass of glycine in water. The microemulsion was shaken by hand to ensure homogeneous mixing. To this was added a microemulsion containing 1.8 g heptane, 2.8 g of a 1:1 mass ratio of Span 80 and Brij 30, 1 g of methanol and 0.25 g of water, with subsequent shaking to ensure homogeneous mixing. The resulting supersaturation ratio (c/csat) was at 1.7-2.0, i.e. sufficient to cause fast crystallisation of metastable forms in an unconfined system.
Glycine microemulsions prepared at 50° C. containing hexadecane, 15% by mass of a 1:1 mass ratio of Span 20 and Span 80, 1% by mass of ethanol and 1% by mass of a glycine aqueous solution containing 2.5% by mass of glycine. The microemulsion was placed in a water bath at 50° C. and cooled to 26° C. over 24 hours. The resulting supersaturation ratio (c/csat) was at least 4, i.e. sufficient to cause rapid crystallisation in an unconfined system.
ROY microemulsions prepared at ambient temperatures containing 10% by mass of Igepal CA720 in water, 30 μl/g of a toluene solution containing 6% by mass of ROY and 12 μl/g of heptane. The resulting supersaturation ratio (c/csat) was at least 4, i.e. sufficient to cause crystallisation typically within a few hours in an unconfined system.
The mefenamic acid-in-DMF bulk solutions and microemulsions, were prepared at elevated temperature (˜50-60° C.). The microemulsion consisted of 3 g of AOT solution containing 3% by mass of AOT in heptane to which was added 20 μl of a mefenamic acid solution containing 70-75 mg of mefenamic acid per ml DMF. The microemulsion was cooled from 50 to 8° C. over 12 hours and then left at 8° C. The resulting supersaturation ratio (c/csat) was 3.9-4.1, i.e. sufficient to cause crystallisation of metastable form II typically within a few hours in an unconfined system.

A short description of data set [2]: Crystallisation in microemulsions under confinement; polymorph of the crystals by FTIR, TEM electron diffraction or Raman. In kind it is physicochemical. As for the experimental part:
Nanocrystals within the microemulsions were analysed by placing drops of the microemulsion onto TEM holey carbon grids and placing in a TEM. Nanocrystal images were taken and selected area electron diffraction patterns from the nanocrystals were captured, from which their polymorphic form could be determined.
Crystals/crystal aggregates were typically extracted via filtration. X-ray diffraction and/or FTIR and/or Raman microscopy techniques were used to determine the polymorph(s) of the extracted crystals/crystal aggregates.
A glycine microemulsion was prepared at ambient temperature containing 4.2 g heptane, 2.8 g of a 1:1 mass ratio of Span 80 and Brij 30, and 0.25 g of glycine solution containing 4% by mass of glycine in water. The microemulsion was shaken by hand to ensure homogeneous mixing. To this was added a microemulsion containing 1.8 g heptane, 2.8 g of a 1:1 mass ratio of Span 80 and Brij 30, 1 g of methanol and 0.25 g of water, with subsequent shaking to ensure homogeneous mixing. The resulting supersaturation ratio (c/csat) was 2.3. The resultant microemulsion was left to stand for 3 weeks at 25° C. […]
ROY microemulsions were prepared at ambient temperatures containing 10% by mass of Igepal CA720 in water and 30 μl/g or 60 μl/g of a ROY in toluene solution containing between 8% to 10% by mass of ROY. […] The crystals/crystal aggregates were extracted by filtration. […]

For data set [3] the following is noted: cited from earlier work.

On to `Cc1cc(C#N)c(Nc2ccccc2[N+](=O)[O-])s1` [ROY, 5-Methyl-2-[(2-nitrophenyl)amino]-3-thiophenecarbonitrile], for which the “crystals by visual inspection or optical microscopy on standing” value (shortened to “crystals … on standing”) in data set [1] (6% ROY in toluene, Igepal CA720/water microemulsion with heptane, after 1 month) was “No crystals were observed”. For the same molecule, in data set [1] (6% by mass ROY in toluene, 30 μl/g, Igepal CA720/water microemulsion, 12 μl/g heptane), the “resulting supersaturation ratio (c/csat)” value is listed as “at least 4”. Also, in data set [2] (Example 5: Igepal CA720/water microemulsion, 8% to 10% ROY in toluene, dropwise heptane antisolvent, ambient), the “polymorph of crystals/crystal aggregates (FTIR)” value is recorded as “yellow prism polymorph of ROY”. Besides, the “energy of yellow prism form below the orange needle and orange prism forms” value in data set [3] (ambient temperatures) is ~0.0717 kcal/mol.

For the molecule `NCC(=O)O` [glycine], the “resulting supersaturation ratio (c/csat)” value in data set [1] (2.5% by mass glycine solution, hexadecane/Span 20/Span 80 microemulsion cooled 50 to 26° C. over 24 hours) was “at least 4”; in data set [1] (3-3.5% by mass glycine solution, heptane/Span 80/Brij 30 microemulsion plus methanol microemulsion), 1.7-2.0; in data set [2] (Example 1: 4% by mass glycine solution in heptane/Span 80/Brij 30 microemulsion plus methanol antisolvent microemulsion) it was 2.3. Also, the “crystals … on standing” value is listed as “No crystals were observed” in data set [1] (2.5% glycine solution, hexadecane/Span 20/Span 80 microemulsion cooled to 26° C., after 1 month); “No crystals were observed” in data set [1] (microemulsion from 3% by mass glycine in water, after 3 months); “only a few μm sized crystals apparent” in data set [1] (microemulsion from 3.5% glycine in water, after 3 months). In addition, the “polymorph of extracted crystals (FTIR)” value in data set [2] (Example 1: methanol antisolvent microemulsion added, c/csat 2.3, 3 weeks at 25° C.) is “predominantly of γ-glycine; also recorded: stable γ-polymorph of glycine with virtually no α-polymorph”. Besides, in data set [2] (Example 2: hexadecane/Span 20/Span 80 microemulsion, 7% glycine solution, cooled 50 to 25° C. over 24 hours, after 7 days), the “polymorph of nanocrystals/nanocrystal aggregates (TEM)” value is recorded as “predominantly of γ-glycine; also recorded: hexagonal γ-polymorph of glycine”. The “polymorph of crystals/crystal aggregates (FTIR)” value in data set [2] (Example 3: heptane/Span 80/Brij 30 microemulsion, 4% glycine solution, vapour diffusion of methanol, ambient temperature) is “predominantly the γ-polymorph of glycine with some α-polymorph”. Besides, in data set [3] (ambient pressure), the “temperatures at which the γ-phase is the most stable ambient pressure form” value is < 165 °C. In data set [3] (ambient temperatures), the “energy of γ-phase below the α-phase” value was ~0.0478 kcal/mol. Besides, the “energy of γ-phase below the β-phase” value in data set [3] (ambient temperatures) was ~0.143 kcal/mol. Moreover, in data set [3] (bulk phases), the “stability of γ-polymorph over α-polymorph in the bulk phases” value is ~0.048 kcal/mol.

Regarding `Cc1cccc(Nc2ccccc2C(=O)O)c1C` [mefenamic acid], the “resulting supersaturation ratio (c/csat)” value is listed as 3.9-4.1 in data set [1] (70-75 mg mefenamic acid per ml DMF in AOT/heptane microemulsion cooled from 50 to 8° C.) and 4.4-5.5 in data set [2] (Example 4: 80-100 mg mefenamic acid per ml DMF in AOT/heptane microemulsion cooled from 50 to 8° C.). The “crystals … on standing” value in data set [1] (70-75 mg/ml mefenamic acid in DMF, AOT/heptane microemulsion at 8° C., after 1 month) is listed as “No crystals were observed”. For the same molecule, in data set [2] (Example 4: DMF-in-heptane/AOT microemulsion cooled from 50 to 8° C. over 12 hours), the “polymorph of crystals (Raman)” value is “predominantly of Form I; also recorded: characteristic Form I peaks”. The “polymorph from crystallization in bulk DMF” value in data set [3] (irrespective of rate of crystallization or crystallization temperature) is “only produces the metastable form II”.

B1: egg white albumin: Albumin is used to exemplify how protein crystallisation can be achieved (protein, UniProt P01012 2-386, looked up)
Ovalbumin: GSIGAASMEFCFDVFKELKVHHANENIFYCPIAIMSALAMVYLGAKDSTRTQINKVVRFDKLPGFGDSIEAQCGTSVNVHSSLRDILNQITKPNDVYSFSLASRLYAEERYPILPEYLQCVKELYRGGLEPINFQTAADQARELINSWVESQTNGIIRNVLQPSSVDSQTAMVLVNAIVFKGLWEKAFKDEDTQAMPFRVTEQESKPVQMMYQIGLFRVASMASEKMKILELPFASGTMSMLVLLPDEVSGLEQLESIINFEKLTEWTSSNVMEERKIKVYLPRMKMEEKYNLTSVLMAMGITDVFSSSANLSGISSAESLKISQAVHAAHAEINEAGREVVGSAEAGVDAASVSEEFRADHPFLFCIKHIATNAVLFFGRCVSP
Consider B1, for which the “crystallisation observed by optical microscopy” value in data set [2] (Example 6: isooctane/AOT microemulsion, 5 mg albumin per ml water, methanol microemulsion added, after 48 hours) is listed as “crystals observed”.
